According to patent publication US11224565B2, “N-acyldipeptide derivatives and their uses” (NeoStrata Company, Inc., priority 2011, dated 2022):
Peptide text beside a SMILES is read from it.

What was measured:
Type in all cases: in vivo, human
[1] = test system: inflammation, dermatitis, or eczema lesions; experiment: Topical application to chronic inflammation, dermatitis, eczema or allergic skin lesions, clinical evaluation; details: for skin color of treated skin compared to surrounding untreated skin: 4 weeks, 0.5% N-Ac-L-Tyr-L-Tyr-NH2 solution or 0.4% N-Ac-L-Val-L-Ala-NH2 in WEP442
Excerpt: In another embodiment, the volunteer subject topically applied the test compositions containing N-acyldipeptide derivatives of the present invention on involved skin or lesions once or twice daily for several weeks or until the involved lesions completely cleared and clinically changed to normal skin. As a control study, the subject also topically applied a vehicle control composition on the involved skin or lesions twice daily for the same period.

[2] = test system: fungal infections of two toe nails; experiment: Topical treatment of fungal infections of toe nails; details: twice daily, after several weeks; 0.5% (w/v) N-Ac-L-Tyr-L-Tyr-NH2 in WEP442 pH 6.7 on one nail, 0.5% (w/v) N-Ac-L-Tyr-L-Tyr-NHNHAc in WEP442 pH 5.5 on another
Excerpt: A subject had fungal infections of two toe nails for many years. Topical treatments with clotrimazole and salicylic acid with or without glycolic acid had not been successful, as shown by the persistent appearance of white and sandy nail plates. The subject topically applied twice daily to one infected nail plate, 0.5% (w/v) N—Ac-L-Tyr-L-Tyr-NH2 in WEP442, pH 6.7 (Example 5), and to another infected nail plate, 0.5% (w/v) N—Ac-L-Tyr-L-Tyr-NHNHAc in WEP442, pH 5.5 (Example 5) for several months. […] Continued topical applications of the formulations should eradicate the nail infections, and the toe nails should start to grow normally.

[3] = test system: Disturbed keratinization; experiment: Summary of test results in volunteer subjects: disturbed keratinization; details: efficacy grade
In short: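 Volunteers applied N-acyldipeptide derivatives dissolved in water/ethanol/propylene glycol 40:40:20, ethanol/propylene glycol 80:20, or water/propylene glycol 80:20 mixed into oil-in-water cream, on involved skin once or twice daily for several weeks or until clearing. Vehicle applied twice daily as control; disturbed keratinization lesions assessed clinically.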

[4] = test system: Aging related changes of skin, nail and hair; experiment: Summary of test results in volunteer subjects: aging related changes; details: efficacy grade
[5] = test system: Deranged immune disorders and inflammation; experiment: Summary of test results in volunteer subjects: deranged immune disorders and inflammation; details: efficacy grade
In short: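 Volunteers applied N-acyldipeptide derivatives topically once or twice daily for several weeks or until lesions cleared. Compounds were dissolved in water/ethanol/propylene glycol (40:40:20) or ethanol/propylene glycol (80:20), or in water/propylene glycol (80:20) mixed into an oil-in-water cream. Vehicle control applied twice daily.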

[6] = test system: Nerve disorders; experiment: Summary of test results in volunteer subjects: nerve disorders; details: efficacy grade
In short: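 Volunteers applied N-acyldipeptide derivatives dissolved in water/ethanol/propylene glycol (40:40:20), ethanol/propylene glycol (80:20), or water/propylene glycol (80:20) mixed into cream, once or twice daily for several weeks or until lesions cleared. Vehicle control applied twice daily; application also over arthritic joints or painful muscles.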

[7] = chronic eczema of legs, twice daily, 2% (w/v) N-Ac-L-Val-L-Ala-NH2 cream on one leg, 0.5% (w/w) N-Ac-L-Tyr-L-Tyr-NHNHAc in WEP442 pH 5.5 on the other
[8] = chronic eczema right leg, twice daily
[9] = chronic eczema right leg, twice daily, 0.5% (w/v) N-Ac-L-Tyr-L-Tyr-NH2 solution pH 6.7 on one lesion, 0.4% (w/v) N-Ac-L-Val-L-Ala-NH2 in WEP442 pH 5.8 on second

SMILES | itch after topical application [1, 7] | improvement as judged by clinical evaluation ([1]; chronic eczema, twice daily, two weeks, 0.6% (w/w) N-Ac-L-Tyr-L-Tyr-NHNH2 cream on one set of lesions, 0.7% (w/w) N-Ac-L-Tyr-L-Tyr-NHNHAc cream on another) [%] | itch after topical application ([1]; chronic eczema, twice daily, 0.6% (w/w) N-Ac-L-Tyr-L-Tyr-NHNH2 cream on one set of lesions, 0.7% (w/w) N-Ac-L-Tyr-L-Tyr-NHNHAc cream on another) | white and sandy appearance of infected nail plates [2] | DK [3] | AG [4] | DI [5] | ND [6] | itch after topical application ([1]; 0.5% (w/w) cream twice daily, skin allergy from shellfish with reddish papules) | improvement as judged by clinical evaluation ([1]; 0.5% (w/w) cream twice daily, skin allergy from shellfish, end of 5 days) [%] | skin color of treated skin compared to surrounding untreated skin [1, 8] | itch after topical application [1, 9]
CC(=O)NNC(=O)[C@H](Cc1ccc(O)cc1)NC(=O)[C@H](Cc1ccc(O)cc1)NC(C)=O [N-Ac-L-Tyr-L-Tyr-NHNHAc] | stopped within a few minutes | 100 | stopped immediately | started to change gradually | 4+ (4+: 95-100% Efficacy) | 3+ (3+: 75% Efficacy) | 4+ (4+: 95-100% Efficacy) | 4+ (4+: 95-100% Efficacy) | – | – | – | –
CC(=O)N[C@H](C(=O)N[C@@H](C)C(N)=O)C(C)C [N-Ac-L-Val-L-Ala-NH2] (Ac-Val-Ala-NH2) | stopped within a few minutes | – | – | – | 4+ (4+: 95-100% Efficacy) | 4+ (4+: 95-100% Efficacy) | 4+ (4+: 95-100% Efficacy) | 4+ (4+: 95-100% Efficacy) | stopped within a few minutes | 75 | much lighter in skin color | stopped within a few minutes
CC(=O)N[C@@H](Cc1ccc(O)cc1)C(=O)N[C@@H](Cc1ccc(O)cc1)C(N)=O [N-Ac-L-Tyr-L-Tyr-NH2] (Ac-Tyr-Tyr-NH2) | – | – | – | started to change gradually | 4+ (4+: 95-100% Efficacy) | 4+ (4+: 95-100% Efficacy) | 4+ (4+: 95-100% Efficacy) | 4+ (4+: 95-100% Efficacy) | – | – | much lighter in skin color | stopped within a few minutes
